# In patent US12421225B2, “Heteroaromatic amide derivative and medicament containing the same” (KAKEN PHARMACEUTICAL CO., LTD., priority 2018, dated 2025):
# Molecular target: human Nav1.7 (Homo sapiens (Human), UniProt Q15858)
# Experiment: Human Nav1.7 inhibitory activity evaluation (automated patch clamp QPatch16X, HEK293A cells stably expressing human Nav1.7 and human Navβ1)
# Type: cell-based
# Conditions: HEK293A cells stably expressing human Nav1.7 and human Navβ1, automated patch clamp QPatch16X
# Method in brief: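 QPatch16X whole-cell recordings at room temperature from HEK293A cells stably expressing human Nav1.7 with Navβ1, CsF-based internal solution, pH 7.4 external, 0.1% DMSO. From −100 mV holding, protocol included a 15 s hold at a potential inactivating ~30-40% of channels; IC50 from inward current at the second −10 mV pulse.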
# Sequence of human Nav1.7 (Q15858 whole entry): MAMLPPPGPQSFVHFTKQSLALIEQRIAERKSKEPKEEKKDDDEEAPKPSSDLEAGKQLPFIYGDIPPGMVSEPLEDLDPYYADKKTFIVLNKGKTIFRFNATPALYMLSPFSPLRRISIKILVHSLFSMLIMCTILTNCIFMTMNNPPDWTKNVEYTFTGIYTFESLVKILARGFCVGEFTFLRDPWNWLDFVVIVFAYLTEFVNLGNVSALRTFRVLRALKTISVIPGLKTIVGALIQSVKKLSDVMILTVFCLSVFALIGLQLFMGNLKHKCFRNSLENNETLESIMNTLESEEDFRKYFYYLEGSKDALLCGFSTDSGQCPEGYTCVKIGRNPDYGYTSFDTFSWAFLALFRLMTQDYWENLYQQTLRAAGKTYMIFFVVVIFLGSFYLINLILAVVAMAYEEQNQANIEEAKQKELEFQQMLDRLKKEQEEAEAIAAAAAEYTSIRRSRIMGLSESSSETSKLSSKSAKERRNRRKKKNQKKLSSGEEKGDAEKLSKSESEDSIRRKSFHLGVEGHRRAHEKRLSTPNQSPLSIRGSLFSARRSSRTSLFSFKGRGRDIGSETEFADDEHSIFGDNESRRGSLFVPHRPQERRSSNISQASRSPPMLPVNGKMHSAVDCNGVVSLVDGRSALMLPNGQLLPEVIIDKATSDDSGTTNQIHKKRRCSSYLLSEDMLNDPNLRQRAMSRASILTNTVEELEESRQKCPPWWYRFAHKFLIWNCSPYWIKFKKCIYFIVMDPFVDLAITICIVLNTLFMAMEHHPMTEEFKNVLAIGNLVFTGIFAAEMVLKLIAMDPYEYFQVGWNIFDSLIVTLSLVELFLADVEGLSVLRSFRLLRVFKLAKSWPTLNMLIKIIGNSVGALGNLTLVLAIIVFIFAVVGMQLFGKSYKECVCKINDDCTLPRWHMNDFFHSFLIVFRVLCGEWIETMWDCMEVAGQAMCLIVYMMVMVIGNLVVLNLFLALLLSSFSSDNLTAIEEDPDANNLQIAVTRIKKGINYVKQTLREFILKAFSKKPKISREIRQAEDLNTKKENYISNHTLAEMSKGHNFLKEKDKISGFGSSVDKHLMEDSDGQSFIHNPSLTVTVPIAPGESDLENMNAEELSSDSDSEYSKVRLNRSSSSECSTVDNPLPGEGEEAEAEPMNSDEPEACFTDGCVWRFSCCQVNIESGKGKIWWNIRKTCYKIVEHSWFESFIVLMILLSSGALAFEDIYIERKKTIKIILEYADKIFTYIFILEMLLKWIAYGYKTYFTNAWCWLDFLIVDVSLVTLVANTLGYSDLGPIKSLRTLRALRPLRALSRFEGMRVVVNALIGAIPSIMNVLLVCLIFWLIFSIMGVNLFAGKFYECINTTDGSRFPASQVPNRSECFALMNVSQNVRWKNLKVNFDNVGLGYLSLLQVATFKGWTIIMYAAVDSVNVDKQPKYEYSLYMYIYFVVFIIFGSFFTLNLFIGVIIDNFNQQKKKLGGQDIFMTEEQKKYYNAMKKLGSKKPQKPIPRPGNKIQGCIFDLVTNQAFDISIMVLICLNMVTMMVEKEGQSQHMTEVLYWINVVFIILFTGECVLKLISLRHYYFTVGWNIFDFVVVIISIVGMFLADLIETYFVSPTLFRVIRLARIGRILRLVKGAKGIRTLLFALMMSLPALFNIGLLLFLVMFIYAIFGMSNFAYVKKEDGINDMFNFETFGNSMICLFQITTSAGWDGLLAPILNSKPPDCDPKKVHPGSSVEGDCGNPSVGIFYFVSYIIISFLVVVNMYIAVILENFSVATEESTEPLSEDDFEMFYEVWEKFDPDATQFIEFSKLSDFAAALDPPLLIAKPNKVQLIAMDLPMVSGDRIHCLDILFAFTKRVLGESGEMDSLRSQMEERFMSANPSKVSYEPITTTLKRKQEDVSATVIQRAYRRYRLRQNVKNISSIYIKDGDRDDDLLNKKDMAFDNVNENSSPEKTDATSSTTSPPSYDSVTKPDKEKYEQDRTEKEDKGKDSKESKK
# Sequence of human Nav1.7 (Q07699 19-218 partner): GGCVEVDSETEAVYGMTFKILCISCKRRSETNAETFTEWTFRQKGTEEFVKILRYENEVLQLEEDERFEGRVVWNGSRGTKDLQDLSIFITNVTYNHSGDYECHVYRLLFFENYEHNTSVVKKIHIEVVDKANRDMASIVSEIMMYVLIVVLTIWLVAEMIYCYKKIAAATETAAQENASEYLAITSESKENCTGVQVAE
row,Structure (SMILES),IC50 [nM]
1,N#Cc1ccc2c(c1)C[C@@H](NC(=O)c1cc3n(n1)CCC(CSc1ccccc1)O3)CO2 (stereo partly shown) [Example 119],< 1000
2,O=C(N[C@H]1COc2ccc(CO)cc2C1)c1cc2n(n1)CCC(c1ccccc1F)O2 (stereo partly shown) [Example 82],< 10000
3,CN1Cc2nc(C(=O)N[C@H]3COc4ccccc4C3)cn2CC1c1ccc(F)c(F)c1 (stereo partly shown) [Example 45],< 10000
4,COc1cccc(-c2c(C(=O)N[C@H]3COc4ccccc4C3)nn3c2CCCC3)n1 [Example 69],< 10000
5,O=C(N[C@H]1COc2ccc(Cl)cc2C1)c1cc2n(n1)CCC(COCC1CC1)O2 (stereo partly shown) [Example 106],< 1000

# Same assay, conditions: human Nav1.7, automated patch clamp
row,Structure (SMILES),IC50 [nM]
1,O=C(N[C@H]1COc2ccc(-c3cnc(N4CCC4)nc3)cc2C1)c1cc2n(n1)CCC(C(F)(F)F)O2 (stereo partly shown) [Example 380],< 10000
2,O=C(NC1COc2ccccc2C1)c1nn2c(c1-c1ccccc1)CCCC2 (stereo not shown) [Example 347],< 10000
3,O=C(N[C@H]1COc2ccc(Cl)cc2C1)c1nn2c(c1-c1ccccc1)CN(CC(F)(F)F)CC2 [Example 509],< 10000
4,"O=C(N[C@H]1COc2ccc(CC(F)F)cc2C1)c1cc2n(n1)CCC(COCC(F)(F)F)CO2 (single isomer, unassigned) [601 (isomer A)]",< 10000
5,"O=C(N[C@H]1COc2ccc(C(F)(F)F)cc2C1O)c1cc2n(n1)CC(CSCC(F)(F)F)O2 (single isomer, unassigned) [641 (isomer A)]",< 10000
6,N#Cc1ccc2c(c1)C[C@@H](NC(=O)c1cc3n(n1)CCC1(CCC1)O3)CO2 [Example 180],< 10000
7,O=C(N[C@H]1COc2ccc(C(F)(F)F)cc2C1O)c1cc2n(n1)CC(COCCOCC(F)(F)F)O2 (stereo partly shown) [Example 660],< 10000
8,O=C(N[C@H]1COc2ccc(C(F)(F)F)cc2C1)c1nn2c(c1-c1ccc3cccnc3c1)COCC2 [Example 517],< 10000
9,O=C(N[C@H]1COc2ccc(C(F)(F)F)cc2C1F)c1cc2n(n1)CCN(C1CCOCC1)C2 (stereo partly shown) [Example 637],< 10000
10,"O=C(N[C@H]1COc2ccc(C(F)(F)F)cc2C1O)c1cc2n(n1)CCC(C(F)F)O2 (single isomer, unassigned) [534 (isomer B)]",< 10000
11,O=C(N[C@H]1COc2ccc(Cl)cc2C1)c1cc2n(n1)CC(Cn1cccn1)O2 (stereo partly shown) [Example 453],< 10000
12,O=C(N[C@H]1COc2ccc(CC(F)F)cc2C1)c1cc2n(n1)CCC(CC1CCOCC1)O2 (stereo partly shown) [Example 674],< 10000
13,O=C(N[C@H]1COc2ccc(CC(F)F)cc2C1)c1cc2n(n1)CC(CC1CCOCC1)O2 (stereo partly shown) [Example 564],< 10000
14,"N#Cc1ccc2c(c1)C[C@@H](NC(=O)c1cc3n(n1)CCC(OCC(F)(F)F)CO3)CO2 (single isomer, unassigned) [255 (isomer A)]",< 10000
15,O=C(N[C@H]1COc2ccccc2C1)c1nc2n(c1-c1ccccc1)CCN(C(=O)C(F)(F)F)C2 [Example 339],< 10000
16,"N#Cc1ccc2c(c1)C[C@@H](NC(=O)c1cc3n(n1)CCC(OC(F)(F)F)CO3)CO2 (single isomer, unassigned) [253 (isomer B)]",< 10000
17,CC1Oc2cc(C(=O)N[C@H]3COc4ccc(Cl)cc4C3)nn2CC1(F)F (stereo partly shown) [Example 385],< 10000

row,Structure (SMILES),IC50 [nM]
1,"N#Cc1ccc2c(c1)C[C@@H](NC(=O)c1cc3n(n1)CCC(CCOC(F)F)O3)CO2 (single isomer, unassigned) [146 (isomer A)]",< 10000
2,N#Cc1ccc2c(c1)C(F)[C@@H](NC(=O)c1cc3n(n1)CCC(C(F)(F)F)O3)CO2 (stereo partly shown) [Example 648],< 10000
3,O=C(N[C@H]1COc2ccc(C(F)(F)F)cc2C1F)c1cc2n(n1)CCC(COCC(F)(F)F)CO2 (stereo partly shown) [Example 634],< 1000
4,O=C(N[C@H]1COc2ccc(C(F)(F)F)cc2C1)c1cc2n(n1)CCN(CC1CCOC1)C2 (stereo partly shown) [Example 669],< 10000
5,O=C(N[C@H]1COc2ccc(C3CC3)cc2C1)c1cc2n(n1)CCC(C(F)F)O2 (stereo partly shown) [Example 405],< 1000
6,"O=C(N[C@H]1COc2ccc(CC(F)F)cc2C1)c1cc2n(n1)CC(CCOC(F)(F)F)O2 (single isomer, unassigned) [211 (isomer A)]",< 1000
7,N#Cc1ccc2c(c1)C[C@@H](NC(=O)c1cc3n(n1)CCC(COCC(F)(F)F)CO3)CO2 (stereo partly shown) [Example 555],< 1000
8,O=C(N[C@H]1COc2ccc(C(F)(F)F)cc2C1O)c1cc2n(n1)CCC(COCC(F)(F)F)O2 (stereo partly shown) [Example 561],< 10000
9,CC1(C)CN(CC2Cn3nc(C(=O)N[C@H]4COc5ccc(C(F)(F)F)cc5C4)cc3O2)CCO1 (stereo partly shown) [Example 458],< 1000
10,O=C(N[C@H]1COc2ccc(COCC(F)(F)F)cc2C1)c1cc2n(n1)CCC(C1CCOCC1)O2 (stereo partly shown) [Example 606],< 1000
11,COc1ncccc1C1CCn2nc(C(=O)N[C@H]3COc4ccc(Cl)cc4C3)cc2O1 (stereo partly shown) [Example 367],< 1000
12,Cc1cc(-c2c(C(=O)N[C@H]3COc4ccc(C(F)(F)F)cc4C3)nc3n2CCOC3)[nH]n1 [Example 512],< 10000
13,CCc1cccc(-c2c(C(=O)N[C@H]3COc4ccc(C#N)cc4C3)nn3c2COCC3)n1 [Example 516],< 10000
14,O=C(N[C@H]1COc2ccc(CC(F)F)cc2C1)c1cc2n(n1)CCC(COCC1(F)CC1)O2 (stereo partly shown) [Example 567],< 1000
15,O=C(NC1COc2ccccc2C1)c1cc2n(n1)CCN(S(=O)(=O)c1ccccc1C(F)(F)F)C2 (stereo not shown) [Example 511],< 10000
16,O=C(NC1COc2ccc(Cl)cc2C1)c1cc2n(n1)CCC(c1ccccc1)O2 (stereo not shown) [Example 355],< 1000

# Second part, the compound after the results:
row,IC50 [nM],Structure (SMILES)
1,< 1000,O=C(N[C@H]1COc2ccc(CCOC(F)(F)F)cc2C1)c1cc2n(n1)CC(CCN1CC(F)(F)C1)O2 (stereo partly shown) [Example 239]
2,< 1000,"O=C(N[C@H]1COc2ccc(CCOC(F)F)cc2C1)c1cc2n(n1)CCC(C(F)F)O2 (single isomer, unassigned) [165 (isomer A)]"
3,< 1000,O=C(N[C@H]1COc2ccc(C3CC3)cc2C1)c1cc2n(n1)CC(COCC1CC1)O2 (stereo partly shown) [Example 463]
4,< 1000,O=C(N[C@H]1COc2cccc(Cl)c2C1)c1cc2n(n1)CCC(COCC(F)(F)F)O2 (stereo partly shown) [Example 574]
5,< 1000,"O=C(N[C@H]1COc2ccc(C(F)(F)F)cc2C1)c1cc2n(n1)CC(CCN1CCC(F)(F)CC1)O2 (single isomer, unassigned) [242 (isomer A)]"
6,< 1000,O=C(N[C@H]1COc2ccc(C(F)(F)F)cc2C1F)c1cc2n(n1)CC(COCCOCC(F)(F)F)O2 (stereo partly shown) [Example 676]
7,< 1000,O=C(N[C@H]1COc2ccc(COCC(F)(F)F)cc2C1)c1cc2n(n1)CCN(CCC1CC1)C2 [Example 505]
8,< 1000,O=C(NC1COc2ccc(F)c(F)c2C1)c1cc2n(n1)CC(CCCOCC(F)(F)F)O2 (stereo not shown) [Example 628]
9,< 1000,"COC1c2cc(C(F)(F)F)ccc2OC[C@@H]1NC(=O)c1cc2n(n1)CCC(COCC(F)(F)F)O2 (single isomer, unassigned; isomer a) [598(isomer A)]"
10,< 1000,O=C(N[C@H]1COc2ccc(Cl)cc2C1)c1cc2n(n1)CCC(C1CCOC1)O2 (stereo partly shown) [Example 611]
11,< 1000,O=C(N[C@H]1COc2ccc(COCC(F)(F)F)cc2C1)c1cc2n(n1)CCC(C(F)(F)F)CO2 (stereo partly shown) [Example 632]
12,< 1000,O=C(N[C@H]1COc2ccc(COCC(F)(F)F)cc2C1)c1cc2n(n1)CCC(COCC(F)F)O2 (stereo partly shown) [Example 635]
13,< 1000,O=C(N[C@H]1COc2ccc(I)cc2C1)c1cc2n(n1)CCC(C(F)F)O2 (stereo partly shown) [Example 566]
14,< 1000,O=C(N[C@H]1COc2ccc(C(F)(F)F)cc2C1O)c1cc2n(n1)CC(COCC1CC1)O2 (stereo partly shown) [Example 560]
15,< 1000,O=C(N[C@H]1COc2ccc(C(F)(F)F)cc2C1)c1cc2n(n1)CC(COCCOCC(F)(F)F)O2 (stereo partly shown) [Example 657]
16,< 1000,O=C(N[C@H]1COc2ccc(Cl)cc2C1)c1cc2n(n1)CCC(CC1CCOCC1)O2 (stereo partly shown) [Example 395]

row,IC50 [nM],Structure (SMILES)
1,< 1000,O=C(N[C@H]1COc2ccc(Cl)cc2C1)c1cc2n(n1)CCC(C1CC1)O2 (stereo partly shown) [Example 387]
2,< 1000,N#Cc1ccc2c(c1)C[C@@H](NC(=O)c1cc3n(n1)CC(CC1CCOCC1)O3)CO2 (stereo partly shown) [Example 565]
3,< 1000,O=C(N[C@H]1COc2ccc(CC(F)F)cc2C1)c1cc2n(n1)CCC(C1CCOCC1)O2 (stereo partly shown) [Example 586]
4,< 1000,O=C(N[C@H]1COc2ccc(C(F)(F)F)cc2C1O)c1cc2n(n1)CC(CCCOCC(F)F)O2 (stereo partly shown) [Example 607]
5,< 1000,O=C(N[C@H]1COc2ccc(C(F)(F)F)cc2C1F)c1cc2n(n1)CCN(CCOCC1CC1)C2 (stereo partly shown) [Example 654]
6,< 1000,N#Cc1ccc2c(c1)C[C@@H](NC(=O)c1cc3n(n1)CC(CCC1CCOCC1)O3)CO2 (stereo partly shown) [Example 623]
7,< 1000,O=C(NC1COc2ccc(F)c(F)c2C1)c1cc2n(n1)CC(CCCOCC(F)F)O2 (stereo not shown) [Example 640]
8,< 1000,O=C(N[C@H]1COc2ccc(COCC(F)(F)F)cc2C1)c1cc2n(n1)CC(CCOC1CCC1)O2 (stereo partly shown) [Example 472]
9,< 1000,O=C(N[C@H]1COc2ccc(C(F)(F)F)cc2C1F)c1cc2n(n1)CCC(C1CCOC1)O2 (stereo partly shown) [Example 613]
10,< 1000,O=C(N[C@H]1COc2ccc(Cl)cc2C1)c1cc2n(n1)CCC(C1CCOCC1)O2 (stereo partly shown) [Example 584]
11,< 1000,O=C(N[C@H]1COc2ccc(C(F)(F)F)cc2C1)c1cc2n(n1)CC(CCN1CCC(F)(F)C1)O2 (stereo partly shown) [Example 476]
12,< 1000,O=C(N[C@H]1COc2ccc(C(F)(F)F)cc2C1O)c1cc2n(n1)CC(CCOCC(F)(F)F)O2 (stereo partly shown) [Example 588]
13,< 1000,O=C(N[C@H]1COc2ccc(C(F)(F)F)cc2C1)c1nn2c(c1-c1cccc(CC(F)(F)F)n1)COCC2 [Example 523]
14,< 1000,C#Cc1ccc2c(c1)C[C@@H](NC(=O)c1cc3n(n1)CCC(COCC(F)(F)F)O3)CO2 (stereo partly shown) [Example 436]
15,< 1000,N#Cc1ccc2c(c1)C[C@@H](NC(=O)c1cc3n(n1)CCC(COCC1(C(F)(F)F)CC1)O3)CO2 (stereo partly shown) [Example 434]
16,< 1000,O=C(N[C@H]1COc2ccccc2C1)c1cn2c(n1)CCC(c1cccc(C(F)(F)F)n1)C2 (stereo partly shown) [Example 314]
